Experimental findings from the C3SDB collision cross section collection are described below.

For series [1] the following is noted: instrument: TW, calibrated with phosphatidylcholines (ESI+) and phosphatidylethanolamines (ESI-), doubly charged cardiolipins calibrated with poly-DL-….
For series [2] the following is noted: instrument: DT, stepped-field.
For series [3] the following is noted: [M+H]+; instrument: TW.

Consider `CCCCCC/C=C\CCCCCCCC(=O)OC[C@H](COP(=O)(O)OCCNC(=O)CCCCCCCCCCCCCCC)OC(=O)CCCCCCCCCCCCCCCCC` [AcylPE(50:1)], for which the “collision cross section (N2)” value in series [1] ([M+Na]+) worked out at 330.1 Å²; in series [1] ([M-H]-) it was 323.73 Å².
The matching figures for `CCCCCC/C=C\CCCCCCCC(=O)OC[C@H](COP(=O)(O)OC[C@@H](O)COC(=O)CCCCCCCCCCCCCCC)OC(=O)CCCCCCCCCCCCCC` [AcylPG(47:1)]: 326 Å² and 313.72 Å².
Taken in the same sequence, the figures for `CCCCCC/C=C\CCCCCCCC(=O)OC[C@H](COP(=O)(O)OC[C@@H](O)COC(=O)CCCCCCCCCCCCCCC)OC(=O)CCCCCCC/C=C\CCCCCCCC` [AcylPG(50:2)] were 333.1 Å² and 322.71 Å².
On to `CCCCCC/C=C\CCCCCCCC(=O)OC[C@H](COP(=O)(O)OC[C@@H](O)COC(=O)CCCCCCCCCCCCCCC)OC(=O)CCCCCCC/C=C\CCCCCCCCCC` [AcylPG(52:2)], for which, in series [1] ([M-H]-), the “collision cross section (N2)” value is on record as 330.34 Å².
Same read-out and setting: the figure for `CCCCCC/C=C\CCCCCCCC(=O)OC[C@H](O)COP(=O)(O)OC[C@@H](COC(=O)CCCCCCC/C=C\CCCCCC)OC(=O)CCCCCCC/C=C/CCCCCCCCCC` [AcylPG(52:3)] is 328.87 Å²; for `CCCCCC/C=C\CCCCCCCC(=O)OC[C@H](O)COP(=O)(O)OC[C@@H](COC(=O)CCCCCCC/C=C\CCCCCC)OC(=O)CCCCCCCC1CC1CCCCCCCCCC` (stereo partly specified) [AcylPG(53:3)] it is 332.67 Å².
For `CCCCCC/C=C\CCCCCCCC(=O)OC(COC(=O)CCCCCCCCCCCCCCC)COP(=O)(O)OCC(O)COP(=O)(O)OCC(COC(=O)CCCCCCCCCCCCC)OC(=O)CCCCCCCCCCCCCCC` (stereo unspecified) [CL(62:1)], the “collision cross section (N2)” value in series [1] ([M+2K]2+) is reported as 419.8 Å².
Still for that read-out and setting: with `CCCCCC/C=C\CCCCCCCC(=O)OC(COC(=O)CCCCCCCCCCCCC)COP(=O)(O)OCC(O)COP(=O)(O)OCC(COC(=O)CCCCCCCCCCCCCCC)OC(=O)CCCCCCC/C=C\CCCCCC` (stereo unspecified) [CL(62:2)] the figure was 418.5 Å².
On to `CCCCCC/C=C\CCCCCCCC(=O)OC(COC(=O)CCCCCCCCCCCCCCC)COP(=O)(O)OCC(O)COP(=O)(O)OCC(COC(=O)CCCCCCCCCCCCCC)OC(=O)CCCCCCCCCCCCCCC` (stereo unspecified) [CL(63:1)], for which the figures for the “collision cross section (N2)” value in series [1] ([M+2K]2+) and in series [1] ([M-2H]2-) were 421.5 Å² and 394.72 Å², respectively.
The matching figures for `CCCCCC/C=C\CCCCCCCC(=O)OC(COC(=O)CCCCCCCCCCCCCC)COP(=O)(O)OCC(O)COP(=O)(O)OCC(COC(=O)CCCCCCCCCCCCCCC)OC(=O)CCCCCCC/C=C\CCCCCC` (stereo unspecified) [CL(63:2)]: 421 Å² and 394.34 Å².
Regarding `CCCCCC/C=C\CCCCCCCC(=O)OCC(COP(=O)(O)OCC(O)COP(=O)(O)OCC(COC(=O)CCCCCCCCCCCCCCC)OC(=O)CCCCCCC/C=C\CCCCCC)OC(=O)CCCCCCC/C=C\CCCCCC` (stereo unspecified) [CL(64:3)], the “collision cross section (N2)” value in series [1] ([M-2H]2-) is given as 397.47 Å².
Regarding `CCCCCC/C=C\CCCCCCCC(=O)OCC(COP(=O)(O)OCC(O)COP(=O)(O)OCC(COC(=O)CCCCCCCCCCCCCCC)OC(=O)CCCCCCCC1CC1CCCCCC)OC(=O)CCCCCCC/C=C\CCCCCC` (stereo unspecified) [CL(65:3)], the “collision cross section (N2)” value turned out to be 424.2 Å² in series [1] ([M+2K]2+) and 400.07 Å² in series [1] ([M-2H]2-).
Taken in the same sequence, the figures for `CCCCCC/C=C\CCCCCCCC(=O)OC(COC(=O)CCCCCCCCCCCCCCC)COP(=O)(O)OCC(O)COP(=O)(O)OCC(COC(=O)CCCCCCCCCCCCCCC)OC(=O)CCCCCCC/C=C\CCCCCCCC` (stereo unspecified) [CL(66:2)] were 426.8 Å² and 402.26 Å².
The matching figures for `CCCCCC/C=C\CCCCCCCC(=O)OCC(COP(=O)(O)OCC(O)COP(=O)(O)OCC(COC(=O)CCCCCCCCCCCCCCC)OC(=O)CCCCCCC/C=C\CCCCCCCC)OC(=O)CCCCCCC/C=C\CCCCCC` (stereo unspecified) [CL(66:3)]: 425.7 Å² and 401.91 Å².
On to `CCCCCC/C=C\CCCCCCCC(=O)OCC(COP(=O)(O)OCC(O)COP(=O)(O)OCC(COC(=O)CCCCCCC/C=C\CCCCCC)OC(=O)CCCCCCC/C=C\CCCCCCCC)OC(=O)CCCCCCC/C=C\CCCCCC` (stereo unspecified) [CL(66:4)], for which the “collision cross section (N2)” value in series [1] ([M-2H]2-) is on record as 401.68 Å².
In the case of `CCCCCCCC/C=C\CCCCCCCC(=O)OC(COC(=O)CCCCCCCCCCCCCCC)COP(=O)(O)OCC(O)COP(=O)(O)OCC(COC(=O)CCCCCCCC1CC1CCCCCC)OC(=O)CCCCCCCCCCCCCCC` (stereo unspecified) [CL(67:2)], the entries for the “collision cross section (N2)” value in series [1] ([M+2K]2+) and in series [1] ([M-2H]2-) were 427.9 Å² and 404.3 Å², respectively.
On to `CCCCCCCC/C=C\CCCCCCCC(=O)OCC(COP(=O)(O)OCC(O)COP(=O)(O)OCC(COC(=O)CCCCCCCCCCCCCCC)OC(=O)CCCCCCC/C=C\CCCCCCCC)OC(=O)CCCCCCCCCCCCCCC` (stereo unspecified) [CL(68:2)], for which the “collision cross section (N2)” value in series [1] ([M-2H]2-) was 407.34 Å².
On the same count and under the same terms, with `CCCCCC/C=C\CCCCCCCC(=O)OC(COC(=O)CCCCCCC/C=C\CCCCCCCC)COP(=O)(O)OCC(O)COP(=O)(O)OCC(COC(=O)CCCCCCCCCCCCCCC)OC(=O)CCCCCCC/C=C\CCCCCCCC` (stereo unspecified) [CL(68:3)] the figure was 407.14 Å².
For `CCCCCCCCCCCCCC(=O)O[C@H](CO)COP(=O)([O-])OCC[NH3+]` [LPE(0:0/14:0)], the figures for the “collision cross section (N2)” value in series [1] ([M+H]+), in series [1] ([M+Na]+) and in series [1] ([M-H]-) were 208.79 Å², 213.66 Å² and 198.83 Å², respectively.
Take `CCCCC1CC1CCCCCCCC(=O)O[C@H](CO)COP(=O)([O-])OCC[NH3+]` (stereo partly specified) [LPE(0:0/15:1)]: the “collision cross section (N2)” value in series [1] ([M-H]-) is 199.81 Å².
For `CCCCCCCCCCCCCCCC(=O)O[C@H](CO)COP(=O)([O-])OCC[NH3+]` [LPE(0:0/16:0)], the “collision cross section (N2)” value in series [1] ([M+H]+) amounted to 216.39 Å²; in series [1] ([M+Na]+) it was 220.61 Å²; in series [1] ([M-H]-), 206.05 Å².
The matching figures for `CCCCCC/C=C/CCCCCCCC(=O)O[C@H](CO)COP(=O)([O-])OCC[NH3+]` [LPE(0:0/16:1)]: 208.94 Å², 212.72 Å² and 203.66 Å².
Taken in the same sequence, the figures for `CCCCCCCCCCCCCCC(=O)OC[C@@H](O)COP(=O)([O-])OCC[NH3+]` [LPE(15:0/0:0)] were 209.91 Å², 216.13 Å² and 202.83 Å².
`CCCCCCCCCCCCCCCC(=O)OC[C@@H](O)COP(=O)([O-])OCC[NH3+]` [LPE(16:0/0:0)]: the entries for the “collision cross section (N2)” value in series [1] ([M+H]+), in series [1] ([M+Na]+) and in series [1] ([M-H]-) were 213.91 Å², 220.01 Å² and 206.89 Å², respectively.
Taken in the same sequence, the figures for `CCCCCCC1CC1CCCCCCCC(=O)OC[C@@H](O)COP(=O)([O-])OCC[NH3+]` (stereo partly specified) [LPE(17:1/0:0)] were 212.27 Å², 219.72 Å² and 208.15 Å².
`CCCCCC/C=C/CCCCCCCC(=O)OC[C@@H](O)COP(=O)(O)OCC(O)CO` (stereo partly specified) [LPG(16:1)]: the “collision cross section (N2)” value in series [1] ([M-H]-) was determined as 210.68 Å².
With `CCCCCCCCC1CC1CCCCCCCC(=O)O[C@H](CO)COP(=O)(O)OCC(O)CO` (stereo partly specified) [LPG(19:1)], the “collision cross section (N2)” value in series [1] ([M-H]-) amounted to 220.89 Å².
For `CCc1cccc(C)c1N(C(=O)CCl)C(C)COC` (stereo unspecified) [Metolachlor], the “collision cross section (N2)” value in series [2] ([M+H]+) is 161.46 Å²; in series [2] ([M+Na]+) it was 175.84 Å²; in series [3] it was 158.23 Å².
Taken in the same sequence, the figures for `CSc1nnc(C(C)(C)C)c(=O)n1N` [Metribuzin] were 150.5 Å², 171.27 Å² and 146.95 Å².
With `CCCCCC/C=C\CCCCCCCC(=O)OCC(COP(=O)(O)O)OC(=O)CCCCCCCCCCCCCCC` (stereo unspecified) [PA(32:1)], the “collision cross section (N2)” value in series [1] ([M-H]-) came to 249.02 Å².
The same measure, in the same setting: with `CCCCCCCC/C=C\CCCCCCCC(=O)OC(COC(=O)CCCCCCCCCCCCCCC)COP(=O)(O)O` (stereo unspecified) [PA(34:1)] the figure was 255.63 Å².
Same read-out and setting: with `CCCCCC/C=C\CCCCCCCC(=O)OCC(COP(=O)(O)O)OC(=O)CCCCCCC/C=C\CCCCCCCC` (stereo unspecified) [PA(34:2)] the figure was 253.68 Å²; with `CCCCCCCC/C=C\CCCCCCCC(=O)OCC(COP(=O)(O)O)OC(=O)CCCCCCC/C=C\CCCCCCCC` (stereo unspecified) [PA(36:2)], 259.86 Å².
Turning to `CCCCCCCCCCCCCCCC(=O)OCC(COP(=O)(O)OCCN)OC(=O)CCCCCCCC1CC1CCCC` (stereo unspecified) [PE(31:1)], the entries for the “collision cross section (N2)” value in series [1] ([M+H]+) and in series [1] ([M-H]-) were 265.08 Å² and 252.34 Å², respectively.
For the molecule `CCCCCCCCCCCCCCCC(=O)OCC(COP(=O)(O)OCCN)OC(=O)CCCCCCCCCCCCCCC` (stereo unspecified) [PE(32:0)], the “collision cross section (N2)” value in series [1] ([M+H]+) is given as 272.49 Å²; in series [1] ([M-H]-) it was 257.29 Å².
For `FC(F)C(F)(F)OCC(Cn1cncn1)c1ccc(Cl)cc1Cl` (stereo unspecified) [Tetraconazole], in series [3], the “collision cross section (N2)” value worked out at 174.34 Å².
In the case of `C=C[C@]1(C)C[C@@H](OC(=O)CSCCN(CC)CC)C2(C)C(C)CC[C@]3(CCC(=O)[C@@H]23)[C@@H](C)[C@@H]1O` (stereo partly specified) [Tiamulin], the “collision cross section (N2)” value in series [3] was found to be 218.9 Å².
In the case of `CCOC(=O)C1CC(=O)C(=C(O)C2CC2)C(=O)C1` (stereo unspecified) [Trinexapac-ethyl], in series [3], the “collision cross section (N2)” value is recorded as 152.92 Å².
Consider `C=C[C@]1(C)C[C@@H](OC(=O)CSC(C)(C)CNC(=O)[C@H](N)C(C)C)[C@]2(C)[C@H](C)CC[C@]3(CCC(=O)[C@H]32)[C@@H](C)[C@@H]1O` [Valnemulin], for which the “collision cross section (N2)” value in series [3] is recorded as 233.3 Å².
